# Laboratory results published in patent publication US7083932B1, “Nucleic acid molecules encoding peptides having pronociceptive properties” (Euroscreen, s.a., priority 1995, dated 2006).
# Where a name gives a salt, the structure may show the parent alone. Ends that are not written are not given here.
# Columns and labels:
# mice [1] = assay: antagonism of nociceptin-induced stimulation of horizontal locomotor activity; format: in vivo
# mice [2] = assay: hole board test; format: in vivo; settings: 5 mg/kg s.c., tested 15 minutes later; saline 150±8
# CHO(ORL1−) cells = format: cell-based
# ORL1 receptor = ORL1 receptor (Homo sapiens, UniProt P41146); assay: cell-based
# Sequence of ORL1 receptor (P41146 whole entry): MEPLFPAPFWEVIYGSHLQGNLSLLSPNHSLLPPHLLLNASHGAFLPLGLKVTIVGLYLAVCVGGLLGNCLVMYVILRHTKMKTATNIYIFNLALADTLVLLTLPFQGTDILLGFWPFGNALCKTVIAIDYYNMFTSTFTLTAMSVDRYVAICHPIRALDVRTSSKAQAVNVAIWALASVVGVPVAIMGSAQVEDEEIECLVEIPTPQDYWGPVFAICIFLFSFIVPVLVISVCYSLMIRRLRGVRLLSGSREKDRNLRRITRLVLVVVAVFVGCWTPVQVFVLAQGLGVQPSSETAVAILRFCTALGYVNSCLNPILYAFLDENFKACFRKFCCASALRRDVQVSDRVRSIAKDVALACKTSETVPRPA
compound,measurement,setting,value
"C=CCN1CC[C@]23c4c5ccc(O)c4O[C@H]2C(=O)CC[C@@]3(O)[C@H]1C5 [Naloxone, Naloxone hydrochloride]",effect on motor-stimulant effect of 100 ng nociceptin,"mice [1]; 0.0–4.5 mg/kg s.c., 10 minutes before i.c.v. nociceptin, first 10 minutes of testing",did not suppress
O=C(CCCN1CCC(O)(c2ccc(Cl)cc2)CC1)c1ccc(F)cc1 [haloperidol],antagonism of nociceptin stimulation of locomotor activity,mice [1]; increasing doses of antagonist,antagonized
CN1CC[C@]23c4c5ccc(O)c4O[C@H]2[C@@H](O)C=C[C@H]3[C@H]1C5 [morphin],Number of explored holes during the 20 minutes period,mice [2],24±2
YGGFTGARKSARKLANQ [^1Tyr analogue],activity on cyclase in wild type cells,CHO(ORL1−) cells,totally inactive
same,IC50,ORL1 receptor,1 nM
same,maximal inhibition of forskolin-induced cAMP accumulation,ORL1 receptor,> 90%
